Experimental findings from patent US20190119282A1, “IMIDAZOPYRIDAZINES USEFUL AS INHIBITORS OF THE PAR-2 SIGNALING PATHWAY” (Vertex Pharmaceuticals Incorporated, priority 2013, published 2019) are described below.

Marks after values point to notes of the source that are not given here.

Series [1] concerns UTP-stimulated Ca2+ response in HT-29 cells. Description: Ca FLIPR TETRA assay, ANTAGONIST mode, stimulation with 0.6 μM UTP. Format: cell-based, human. The conditions noted are these: Homo sapiens, HT-29 cells. Summed up: (§1)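 Cells plated overnight at 37 °C, 5% CO2 in 1% FBS medium; dye loading 45 min at 37 °C then 15 min r.t.; compound added from DMSO/HBSS dilution; first read for intrinsic Ca2+ activation; 30 min r.t. incubation; antagonist read after addition of the fixed activator (8 μM SLIGKV, 1 U/mL thrombin, 3.1 U/mL trypsin or 0.6 μM UTP).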

Series [2] concerns the target T1, PAR2 (HT-29 cells, SLIGKV activation) (Homo sapiens, UniProt P55085).
T1 construct: host or cells: HT-29 cells
T1 sequence (P55085 26-397): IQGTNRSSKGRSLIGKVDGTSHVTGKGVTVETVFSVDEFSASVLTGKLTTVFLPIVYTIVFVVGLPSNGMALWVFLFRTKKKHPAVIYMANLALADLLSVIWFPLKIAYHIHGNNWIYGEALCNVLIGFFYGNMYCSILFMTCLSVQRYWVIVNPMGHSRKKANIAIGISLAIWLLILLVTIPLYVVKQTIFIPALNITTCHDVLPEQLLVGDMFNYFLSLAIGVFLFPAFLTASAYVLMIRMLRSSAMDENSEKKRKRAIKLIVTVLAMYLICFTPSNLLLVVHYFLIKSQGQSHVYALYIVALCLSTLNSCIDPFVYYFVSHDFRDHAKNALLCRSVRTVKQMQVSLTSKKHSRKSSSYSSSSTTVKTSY
Briefly: Ca FLIPR TETRA assay, ANTAGONIST mode, stimulation with 8 μM SLIGKV. The series is classed as cell-based. The conditions noted are these: HT-29 cells. Summed up: as §1

In series [3] the target is T2, PAR2 (HT-29 cells, trypsin activation) (Homo sapiens, UniProt P55085).
T2 construct: host or cells: HT-29 cells
T2 sequence (P55085 26-397): T1 sequence (P55085 26-397)
Description: Ca FLIPR TETRA assay, ANTAGONIST mode, stimulation with 3.1 U/mL trypsin. The series is classed as cell-based. The conditions noted are these: HT-29 cells. The essentials:
as §1

The nature of series [4]: In vivo rat pharmacokinetics (intravenous and oral). The conditions noted are these: plasma; for clearance: intravenous 0.5 to 1 mg/kg, read-out: Clp; for Vd: intravenous, read-out: Vss; for bioavailability: oral by gavage; for half-life: read-out: T ½ (converted). How it is done: Example 61: Protocol for Testing PAR2 Compounds In Vivo Rat Pharmacokinetics Experiments
Compounds delivered by intravenous route were formulated using a solution formulation consisting of 5% N-methylpyrrolidone 10% Vitamin E-TPGS and 85% water (v/v/) or a solution formulation consisting of 25% N-methylpyrrolidone 35% polyethylene glycol 400 and 40% water (v/v/). Intravenous formulations were administered by a bolus injection (over approximately 10 seconds) using a hypodermic needle attaches to a syringe (tail vein). The dose volume was varied from 1 to 2 mL/kg and the dose was varied from 0.5 to 1 mg/kg. Compounds delivered orally were formulated as a solution formulation consisting of 5% N-methylpyrrolidone 10% Vitamin E-TPGS and 85% water (v/v/) or as fine suspension using a cellulose derivative suspending agent with or without the addition of a wetting agent/surfactant. Milling of large particles was performed as needed to reduce particle size using focused electroacoustic milling, homogenization or low energy media milling. A spray-dried solid dispersion was prepared for key compounds using 1:1 combination with cellulose derivatives. Test compounds were administered orally by gavage using a gavage plastic needle attached to a syringe. The dose volume was varied from 5 to 10 mL/kg and the dose was varied from 1 to 600 mg/kg.
Rats were bled by venipuncture (jugular vein) and the samples were collected into tubes containing K3EDTA. The tubes were placed on wet ice until processed. The samples were centrifuged for approximately 10 minutes (at approximately 4° C.) within approximately 30 minutes of collection to prepare plasma or diluted in citrate buffer (1:3) and stored frozen (approximately −30° C.). Thawed plasma or whole blood samples were extracted by protein precipitation using an organic solvent followed by centrifugation. The supernatants were separated by high-performance liquid chromatography coupled to mass spectrometry detection. A calibration curve was prepared using reference standard compounds spiked into either blank plasma or whole blood matrices and extracted similarly to unknown samples. Pharmacokinetic parameters were calculated using non-compartmental analysis.

For series [5], the system named is Thrombin-stimulated Ca2+ response in HT-29 cells. Description: Ca FLIPR TETRA assay, ANTAGONIST mode, stimulation with 1 U/mL Thrombin. The series is classed as cell-based, human. The conditions noted are these: Homo sapiens, HT-29 cells. Summed up:
as §1

Series [6] concerns carrageenan-induced paw edema. Briefly: Rat carrageenan-induced paw edema model. The conditions noted are these: given before carrageenan challenge. Format: in vivo, Sprague Dawley rats. The method, then: Male Sprague Dawley rats and BALB/c mice were housed in groups in a temperature controlled room and were acclimatized in the animal facility for at least three days prior to use. Experiments were performed during the light phase of the cycle. Animals have food and water ad libitum.
Example 63: Rat Carrageenan-Induced Paw Edema Model
Peripheral inflammation was induced by intra-plantar administration of 100 ul of a 1% w/volume (in saline) carrageenan solution under isoflurane anesthesia. The degree of swelling was assessed using the plethysmometer at 2-3-4-5-6 h after carrageenan injection. Test compound or vehicle (0.5% MC/0.1% SDS) was systemically administered at the indicated doses in a volume of 5 mL/kg either I-3 hour before carrageenan challenge (Table 9) or 2 hours post carrageenan challenge (Table 10).
Data are expressed as the mean % effect. Statistical significance was assessed using t-test for comparison between naive and inflamed rats, and one-way ANOVA followed by post-hoc comparison test for overall drug effectiveness. A difference between groups is considered significant with a p value of <0.05. *, p<0.05; **, p<0.01; ***, p<0.001 vs. vehicle.

Where [7] appears, read: stimulation with 3.1 U/mL trypsin.
[8] abbreviates: stimulation with 1 U/mL Thrombin.
Setting [9] is: antagonist mode, stimulation with 0.6 μM UTP.
Setting [10] is: antagonist mode, stimulation with 8 μM SLIGKV.
[11] abbreviates: antagonist mode, stimulation with 3.1 U/mL trypsin.
The mark [12] stands for this setting: antagonist mode, stimulation with 1 U/mL Thrombin.

As for `Cc1cc(-c2ccc(F)cc2)nn2cc(C(=O)N3CCN(C(=O)[C@H](O)CC(C)(C)C)[C@@H](C)C3)nc12` [Compound I-9, (R)-1-((S)-4-(6-(4-Fluorophenyl)-8-methylimidazo[1,2-b]pyridazine-2-carbonyl)-2-methylpiperazin-1-yl)-2-hydroxy-4,4-dimethylpentan-1-one], the IC50 was greater than 5000 nM in series [1] (stimulation with 0.6 μM UTP), 9 nM in series [2] (stimulation with 8 μM SLIGKV), 110 nM in series [3] (setting [7]) and greater than 5000 nM in series [5] (setting [8]). For the same compound, in series [4], the clearance came out at 21.7 mL/min/kg. The Vd in series [4] amounted to 1.4 L/kg. Also, the bioavailability in series [4] was determined as 57%. Further, the half-life in series [4] is 1.2 h.

As for `CC(C)c1cc(-c2ccc(F)cc2)nn2cc(C(=O)N3CCN(C(=O)C4(O)CCOCC4)CC3(C)C)nc12` [Compound I-27, [6-(4-fluorophenyl)-8-isopropyl-imidazo[1,2-b]pyridazin-2-yl]-[4-(4-hydroxytetrahydropyran-4-carbonyl)-2,2-dimethyl-piperazin-1-yl]methanone], the IC50 is 42000 nM in series [1] (stimulation with 0.6 μM UTP), 59 nM in series [2] (stimulation with 8 μM SLIGKV), 250 nM in series [3] (setting [7]) and 35000 nM in series [5] (setting [8]). In addition, the “% inhibition of carrageenan induced paw edema” value (“% inhibition” below) in series [6] (dose 3 mg/kg) is on record as 16%; in series [6] (dose 6 mg/kg) it was 25* %; in series [6] (dose 10 mg/kg), 30%; in series [6] (dose 20 mg/kg), 33** %; in series [6] (dose 30 mg/kg), 31* %; in series [6] (dose 60 mg/kg) it was 30** %.

With `CC1(C)C(=O)NCCN1C(=O)c1cn2nc(-c3ccc(F)cc3)cc(C3CCOCC3)c2n1` [Compound I-29, 4-[6-(4-fluorophenyl)-8-tetrahydropyran-4-yl-imidazo[1,2-b]pyridazine-2-carbonyl]-3,3-dimethyl-piperazin-2-one], the IC50 in series [1] (stimulation with 0.6 μM UTP) was greater than 50000 nM. The IC50 in series [2] (stimulation with 8 μM SLIGKV) amounted to 240 nM. In addition, the IC50 in series [3] (setting [7]) was 390 nM. In addition, in series [4], the clearance came out at 3.6 mL/min/kg, the Vd is 1.8 L/kg, the bioavailability amounted to 71% and the half-life was 6.7 h. The IC50 in series [5] (setting [8]) was greater than 50000 nM.

Regarding `CC(C)(O)C(=O)N1CCN(C(=O)c2cn3nc(-c4ccc(F)cc4)cc(C4(C)CC4)c3n2)C(C)(C)C1` [Compound I-32, 1-[4-[6-(4-fluorophenyl)-8-(1-methylcyclopropyl)imidazo[1,2-b]pyridazine-2-carbonyl]-3,3-dimethyl-piperazin-1-yl]-2-hydroxy-2-methyl-propan-1-one], the IC50 in series [1] (stimulation with 0.6 μM UTP) was greater than 50000 nM. Besides, in series [2] (stimulation with 8 μM SLIGKV), the IC50 is 17 nM. For the same compound, the IC50 in series [3] (setting [7]) came to 21 nM. In series [4], the clearance was found to be 29.3 mL/min/kg, the Vd amounted to 2.2 L/kg, the bioavailability worked out at 39% and the half-life was 1.4 h. In series [5] (setting [8]), the IC50 was greater than 50000 nM.

With `C[C@@H]1C[C@H](c2cc(-c3ccc(F)cc3)nn3cc(C(=O)N4CCN(C(=O)[C@H]5C[C@](O)(C(F)(F)F)C5)CC4(C)C)nc23)C[C@H](C)O1` [Compound I-213], the IC50 in series [1] (setting [9]) is greater than 1000 nM; in series [2] (setting [10]), 3.5 nM; in series [3] (setting [11]), 5.4 nM; in series [5] (setting [12]), greater than 1000 nM. Further, in series [6] (dose 7 mg/kg), the “% inhibition” value was 36* %.

For the compound `CC(C)(C)c1cc(-c2ccc(F)cc2)nn2cc(C(=O)N3CCN(C(=O)c4nc[nH]n4)CC3(C)C)nc12` [Compound I-227], the 50% inhibitory concentration (IC50) in series [1] (setting [9]) is 420 nM; in series [2] (setting [10]), 0.7 nM; in series [3] (setting [11]), 1.6 nM; in series [5] (setting [12]), 570 nM. The “% inhibition” value is on record as 35* % in series [6] (dose 0.3 mg/kg) and 64** % in series [6] (dose 10 mg/kg).

Turning to `CC(C)(C)c1cc(-c2ccc(F)cc2)nn2cc(C(=O)N3CCN(C(=O)c4cn[nH]c4)CC3(C)C)nc12` [Compound I-228], the IC50 in series [1] (setting [9]) was found to be 590 nM; in series [2] (setting [10]), 0.6 nM; in series [3] (setting [11]) it was 0.8 nM; in series [5] (setting [12]), 590 nM. For the same compound, the “% inhibition” value in series [6] (dose 10 mg/kg) is recorded as 48** %.

Regarding `CC(C)c1cc(-c2ccc(C(F)(F)F)c(F)c2)nn2cc(C(=O)N3CCN(C(=O)C(C)(C)O)CC3(C)C)nc12` [Compound I-252], the IC50 is greater than 1000 nM in series [1] (setting [9]), 2.6 nM in series [2] (setting [10]), 6.7 nM in series [3] (setting [11]) and greater than 1000 nM in series [5] (setting [12]). For the same compound, in series [4], the clearance was 4.17 mL/min/kg. Further, the Vd in series [4] came out at 1.49 L/kg. The bioavailability in series [4] came to 92%. The half-life in series [4] was 5.85 h.

As to `Cc1cc(C(=O)N2CCN(C(=O)c3cn4nc(-c5ccc(F)cc5)cc(C(C)C)c4n3)C(C)(C)C2)[nH]n1` [Compound I-303], the IC50 in series [1] (setting [9]) is greater than 1000 nM. Further, the concentration for half-maximal inhibition (IC50) in series [2] (setting [10]) stood at 2 nM. The IC50 in series [3] (setting [11]) came to 2 nM. For the same compound, in series [4], the clearance was determined as 7.15 mL/min/kg, the Vd worked out at 2.04 L/kg, the bioavailability amounted to 69% and the half-life was 5.36 h. Also, in series [5] (setting [12]), the half-maximal inhibitory concentration (IC50) was greater than 1000 nM.

As to `CC(C)(C)c1cc(C2CCC(F)(F)CC2)nn2cc(C(=O)N3CCN(C(=O)[C@H]4C[C@@](C)(O)C4)CC3(C)C)nc12` [Compound I-452, [8-tert-butyl-6-(4,4-difluorocyclohexyl)imidazo[1,2-b]pyridazin-2-yl]-[4-(3-hydroxy-3-methyl-cyclobutanecarbonyl)-2,2-dimethyl-piperazin-1-yl]methanone], the IC50 in series [1] (setting [9]) was 11600 nM. Also, the IC50 in series [2] (setting [10]) came to 3.3 nM. In series [3] (setting [11]), the concentration for half-maximal inhibition (IC50) turned out to be 6.2 nM. In addition, in series [4], the clearance stood at 7.24 mL/min/kg, the Vd was 1.96 L/kg, the bioavailability was determined as 67% and the half-life is 3.62 h. Further, in series [5] (setting [12]), the IC50 was 7850 nM.

Take `CC(C)(C)c1cc(-c2ccc(F)cc2)nn2cc(C(=O)N3CCN(C(=O)[C@H]4CC[C@@](C)(C(=O)O)CC4)CC3(C)C)nc12` [Compound I-563, (1S,4S)-4-(4-(8-(tert-butyl)-6-(4-fluorophenyl)imidazo[1,2-b]pyridazine-2-carbonyl)-3,3-dimethylpiperazine-1-carbonyl)-1-methylcyclohexane-1-carboxylic acid]: the IC50 is greater than 1000 nM in series [1] (antagonist mode, 0.6 μM UTP); 0.3 nM in series [2] (antagonist mode, 8 μM SLIGKV); 0.4 nM in series [3] (antagonist mode, 3.1 U/mL trypsin); greater than 1000 nM in series [5] (antagonist mode, 1 U/mL Thrombin). In addition, in series [4], the clearance came out at 61.7 mL/min/kg. For the same compound, the Vd in series [4] came to 1.19 L/kg. Also, the bioavailability in series [4] came to 15%. The half-life in series [4] is 0.413 h.
